Experimental data from paper PMC10688023 (Journal of chemical information and modeling, 2023).
Counter-ions that a name gives are not always drawn. Like-named read-outs stand apart in the source and are kept apart here.

Assays:
recombinant human AChE [1] = biological target: T1, recombinant human AChE (Homo sapiens, UniProt P22303)
recombinant human AChE [2] = biological target: T1, recombinant human AChE; conditions: fluorescence-based assay
recombinant human BChE [3] = biological target: T2, recombinant human BChE (Homo sapiens, UniProt P06276); format: biochemical; conditions: for BChE inhibitory effect (activity call): active in colorimetric assay and in fluorescence assay
T2 sequence (P06276 29-602): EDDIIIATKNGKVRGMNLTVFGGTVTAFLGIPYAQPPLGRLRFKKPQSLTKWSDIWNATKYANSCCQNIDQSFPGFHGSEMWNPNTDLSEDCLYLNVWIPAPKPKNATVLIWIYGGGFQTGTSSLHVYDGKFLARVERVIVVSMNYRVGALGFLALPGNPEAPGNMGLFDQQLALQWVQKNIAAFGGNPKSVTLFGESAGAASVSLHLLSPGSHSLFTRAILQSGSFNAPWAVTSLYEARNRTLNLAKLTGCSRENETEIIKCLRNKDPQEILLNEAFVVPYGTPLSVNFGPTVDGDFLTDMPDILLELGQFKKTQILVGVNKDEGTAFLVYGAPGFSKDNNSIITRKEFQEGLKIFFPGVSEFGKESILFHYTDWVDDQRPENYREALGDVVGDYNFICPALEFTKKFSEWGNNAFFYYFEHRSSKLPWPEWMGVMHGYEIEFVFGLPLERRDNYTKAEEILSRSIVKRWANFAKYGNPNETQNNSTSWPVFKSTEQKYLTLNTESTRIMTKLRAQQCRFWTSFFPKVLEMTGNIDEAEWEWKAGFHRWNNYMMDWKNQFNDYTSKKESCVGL

AChE = conditions: ref [8], cited from earlier work
BChE = conditions: cited from earlier work
recombinant human BChE [4] = biological target: T2, recombinant human BChE

T1 sequence (P22303 32-614): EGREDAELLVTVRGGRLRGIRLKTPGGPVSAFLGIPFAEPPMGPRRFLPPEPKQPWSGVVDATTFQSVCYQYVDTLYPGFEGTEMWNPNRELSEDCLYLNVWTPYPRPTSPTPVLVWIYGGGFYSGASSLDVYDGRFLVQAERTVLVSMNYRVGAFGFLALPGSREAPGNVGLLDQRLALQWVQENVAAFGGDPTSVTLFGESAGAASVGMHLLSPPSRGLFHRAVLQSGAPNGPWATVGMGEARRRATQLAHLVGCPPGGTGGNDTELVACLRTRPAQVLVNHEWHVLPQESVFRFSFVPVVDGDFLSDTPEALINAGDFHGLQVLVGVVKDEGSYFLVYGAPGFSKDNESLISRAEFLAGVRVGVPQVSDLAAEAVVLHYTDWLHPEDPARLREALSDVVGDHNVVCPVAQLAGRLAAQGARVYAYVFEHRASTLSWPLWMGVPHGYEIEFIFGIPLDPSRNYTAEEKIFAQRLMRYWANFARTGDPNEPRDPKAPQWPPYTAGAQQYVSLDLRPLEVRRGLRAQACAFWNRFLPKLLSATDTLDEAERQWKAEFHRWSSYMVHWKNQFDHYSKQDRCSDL

Compound: O=C(NCc1ccnc(N2CCCC2)c1)C1CCCN(c2cc(-n3cncn3)ncn2)C1 (stereo not drawn) [NCGC00526830]
- selectivity index (SI) (recombinant human AChE [1]; AChE over BChE): 79-164
- efficacy, AChE inhibition (recombinant human AChE [1]; colorimetric assay): 78%±4.18
- IC50 (recombinant human AChE [1]; read-out: IC50, AChE inhibition, colorimetric assay): 270 nM
- efficacy, AChE inhibition (recombinant human AChE [2]): 116%±3.24
- IC50 (recombinant human AChE [2]; read-out: IC50, AChE inhibition): 130 ± 20 nM

Compound: CN(C)[C@@H](CCOc1cccc2ccccc12)c1ccccc1 [dapoxetine HCl]
- BChE inhibitory effect (activity call) (recombinant human BChE [3]): confirmed by both assays

Compound: CC(CCc1ccccc1)NC(C)C(O)c1ccc(O)cc1 (stereo not drawn) [nylidrin hydrochloride]
- BChE inhibitory effect (activity call) (recombinant human BChE [3]): confirmed by both assays

Compound: COc1ccc2c3c1O[C@H]1C[C@@H](O)C=C[C@@]31CCN(C)C2 [galantamine]
- IC50 (AChE; read-out: IC50, AChE inhibition, [40]): 790 nM
- selective inhibition of AChE activity versus BChE (AChE): 50 fold

Compound: CCN(CC)C(C)CN1c2ccccc2Sc2ccccc21 (stereo not drawn) [ethopropazine]
- IC50 (BChE; read-out: IC50, BChE inhibition, ref [41], [42]): 210 to 300 nM
- selectivity for BChE over AChE (BChE; ref [39]): ~ 1000 fold

Compound: CCN(CC)CCOC(=O)C(Cc1cccc2ccccc12)CC1CCCO1 (stereo not drawn) [nafronyl oxalate]
- BChE inhibitory effect (activity call) (recombinant human BChE [3]): confirmed by both assays

Compound: Cc1ccc(C)c(-n2cc(CN(C)CCO)c(-c3ccccc3)n2)c1 [NCGC00425816]
- efficacy, BChE inhibition (recombinant human BChE [3]; fluorescence-based assay): 109%±6.76
- IC50 (recombinant human BChE [3]; read-out: IC50, BChE inhibition, fluorescence-based assay): 80 ± 10 nM
- selectivity index (SI) (recombinant human BChE [4]; BChE over AChE): 1250-2351
- efficacy, BChE inhibition (recombinant human BChE [4]; colorimetric assay): 98.9%±3.21
- IC50 (recombinant human BChE [4]; read-out: IC50, BChE inhibition, colorimetric assay): 40 ± 10 nM

Compound: CCN(CCCc1ccccc1)CCCc1ccccc1 [alverine citrate]
- BChE inhibitory effect (activity call) (recombinant human BChE [3]): confirmed by both assays
